Each compound was assayed against T1, GPR43 (Homo sapiens, UniProt O15552) (assay: Calcium mobilization assay with probenecid). Conditions: GPR43 stably expressing cells; triggered with sodium acetate at EC80; 2.5 mM probenecid; read-out: GPR43 assay with probenicid IC50.
T1 construct: expressed in transfected cells
T1 sequence (O15552 1-330): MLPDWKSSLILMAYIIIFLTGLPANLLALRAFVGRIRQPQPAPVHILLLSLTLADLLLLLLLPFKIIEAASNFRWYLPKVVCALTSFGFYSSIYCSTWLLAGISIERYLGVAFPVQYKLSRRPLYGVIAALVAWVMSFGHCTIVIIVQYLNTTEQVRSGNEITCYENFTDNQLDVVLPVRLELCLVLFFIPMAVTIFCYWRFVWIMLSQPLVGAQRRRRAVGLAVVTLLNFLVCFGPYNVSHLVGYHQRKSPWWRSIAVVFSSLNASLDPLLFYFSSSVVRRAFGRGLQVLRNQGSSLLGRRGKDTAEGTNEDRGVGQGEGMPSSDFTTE
Format: cell-based
Description: The following assay can be used for determination of GPR43 activation. The assay measures intracellular calcium release induced by activation of GPR43. On day 1, GPR43 stably expressing cells were detached with mild trypsinization (Trypsin, 0.25% with EDTA 4Na, 5× diluted in PBS) centrifuged at 1000 rpm for 5 min and resuspended at 6.000 cells/25 […] medium (DMEM supplemented with 10% FBS, 10 μg/mL puromycin and 1% Pen/Strep). The cells were distributed in poly-D-lysine coated 384 well plates (black with clear bottom, 25 μL/well) and incubated overnight at 37° C. 10% CO2.
On day 2, 25 μL of a fluorescent Ca^2+ indicator (Calcium 4 assay; Molecular Devices) supplemented with 2.5 mM probenecid was added on top of the cells and incubated for 2 h at 37° C. Subsequently, compounds at increasing concentration (10 μL/well) were added to the plate and incubated for 15 min at 37° C.
To measure agonist activity of the compounds, compound was added to the well and the Ca^2+-flux was measured simultaneously to the […] of compound.

| IC50 | SMILES |
| --- | --- |
| 501 to 1000 nM | Cc1cc(C)cc(CC(=O)N2CCC2(C)C(=O)N(Cc2ccc(Cl)cc2)Cc2nnc(O)o2)c1 (stereo not shown) [Compound 111, 1-[2-(3,5-Dimethyl-phenyl)-acetyl]-2-methyl-azetidine-2-carboxylic acid (4-chloro-benzyl)-(5-hydroxy-[1,3,4]oxadiazol-2-ylmethyl)-amide] |
| 501 to 1000 nM | CN(Cc1ccc(Cl)cc1)C(=O)C1(C)CCN1C(=O)c1ccc2sccc2c1 (stereo not shown) [Compound 112, 1-(Benzo[b]thiophene-5-carbonyl)-2-methyl-azetidine-2-carboxylic acid (4-chloro-benzyl) methyl-amide] |
| 501 to 1000 nM | Cc1cc(C)cc(CC(=O)N2CCC2(C)C(=O)N(Cc2ccc(Cl)cc2)Cc2noc(O)n2)c1 (stereo not shown) [Compound 114, 1-[2-(3,5-Dimethyl-phenyl)-acetyl]-2-methyl-azetidine-2-carboxylic acid (4-chloro-benzyl)-(5-hydroxy-[1,2,4]oxadiazol-3-ylmethyl)-amide] |
| > 1000 nM | Cc1cc(C)cc(CC(=O)N2CCC2(C)C(=O)N(CCc2cc(O)[nH]n2)Cc2ccc(Cl)cc2)c1 (stereo not shown) [Compound 116, 1-[2-(3,5-Dimethyl-phenyl)-acetyl]-2-methyl-azetidine-2-carboxylic acid (4-chloro-benzyl)-[2-(5-hydroxy-1H-pyrazol-3-yl)-ethyl]-amide] |
| > 1000 nM | Cc1cc(C)cc(CC(=O)N2CCC2(C)C(=O)N(CCc2cc(O)n(C)n2)Cc2ccc(Cl)cc2)c1 (stereo not shown) [Compound 117, 1-[2-(3,5-Dimethyl-phenyl)-acetyl]-2-methyl-azetidine-2-carboxylic acid (4-chloro-benzyl)-[2-(5-hydroxy-1-methyl-1H-pyrazol-3-yl)-ethyl]-amide] |
| > 1000 nM | CCOc1cc(CCN(Cc2ccc(Cl)cc2)C(=O)C2(C)CCN2C(=O)Cc2cc(C)cc(C)c2)nn1C (stereo not shown) [Compound 118, 1-[2-(3,5-Dimethyl-phenyl)-acetyl]-2-methyl-azetidine-2-carboxylic acid (4-chloro-benzyl)-[2-(5-ethoxy-1-methyl-1H-pyrazol-3-yl)-ethyl]-amide] |
| > 1000 nM | Cc1cc(C)cc(CC(=O)N2CCC2(C)C(=O)N(CCc2nnc(O)o2)Cc2ccc(Cl)cc2)c1 (stereo not shown) [Compound 119, 1-[2-(3,5-Dimethyl-phenyl)-acetyl]-2-methyl-azetidine-2-carboxylic acid (4-chloro-benzyl)-[2-(5-hydroxy-[1,3,4]oxadiazol-2-yl)-ethyl]-amide] |
| > 1000 nM | CCOc1cc(CCN(Cc2ccc(Cl)cc2)C(=O)C2(C)CCN2C(=O)Cc2cc(C)cc(C)c2)n[nH]1 (stereo not shown) [Compound 120, 1-[2-(3,5-Dimethyl-phenyl)-acetyl]-2-methyl-azetidine-2-carboxylic acid (4-chloro-benzyl)-[2-(5-ethoxy-1H-pyrazol-3-yl)-ethyl]-amide] |
| > 1000 nM | CN(Cc1ccc(Cl)cc1)C(=O)C1(C)CCN1C(=O)c1ccc2occc2c1 (stereo not shown) [Compound 121, 1-(benzofuran-5-carbonyl)-N-(4-chlorobenzyl)-N,2-dimethylazetidine-2-carboxamide] |
| 501 to 1000 nM | Cc1cc(C)cc(CC(=O)N2CCC2(C)C(=O)N(CCCC(=O)N2CCN(C)CC2)Cc2ccc(Cl)cc2)c1 (stereo not shown) [Compound 124, 1-[2-(3,5-Dimethyl-phenyl)-acetyl]-2-methyl-azetidine-2-carboxylic acid (4-chloro-benzyl)-[4-(4-methyl-piperazin-1-yl)-4-oxo-butyl]-amide] |
| > 1000 nM | Cc1cc(C)cc(CC(=O)N2CCC2(C)C(=O)N(CCCC(=O)N(C)C)Cc2ccc(Cl)cc2)c1 (stereo not shown) [Compound 125, 1-[2-(3,5-Dimethyl-phenyl)-acetyl]-2-methyl-azetidine-2-carboxylic acid (4-chloro-benzyl)-(3-dimethylcarbamoyl-propyl)-amide] |
| > 1000 nM | CN(Cc1ccc(Cl)cc1)C(=O)C1(C)CCN1C(=O)c1ccc2ccccc2c1 (stereo not shown) [Compound 126, 1-(2-naphthoyl)-N-(4-chlorobenzyl)-N,2-dimethylazetidine-2-carboxamide] |
| > 1000 nM | CC1(C(=O)N(CCCC(N)=O)Cc2ccc(Cl)cc2)CCN1C(=O)Cc1csc2ccccc12 (stereo not shown) [Compound 127, 1-(2-Benzo[b]thiophen-3-yl-acetyl)-2-methyl-azetidine-2-carboxylic acid (3-carbamoyl-propyl)-(4-chloro-benzyl)-amide] |
| 0.01 to 100 nM | CC1(C(=O)N(CCCC(=O)N2CCOCC2)Cc2ccc(Cl)cc2)CCN1C(=O)Cc1csc2ccccc12 (stereo not shown) [Compound 129, 1-(2-Benzo[b]thiophen-3-yl-acetyl)-2-methyl-azetidine-2-carboxylic acid (4-chloro-benzyl)-(4-morpholin-4-yl-4-oxo-butyl)-amide] |
| 0.01 to 100 nM | Cc1cc(C)cc(CC(=O)N2CCC2(C)C(=O)N(Cc2ccc(Cl)cc2)Cc2cc(O)[nH]n2)c1 (stereo not shown) [Compound 133, 1-[2-(3,5-Dimethyl-phenyl)-acetyl]-2-methyl-azetidine-2-carboxylic acid (4-chloro-benzyl)-(5-hydroxy-1H-pyrazol-3-ylmethyl)-amide] |
| 501 to 1000 nM | CC1(C(=O)N(CCCC(=O)O)Cc2ccc(Cl)cc2)CCN1C(=O)c1ccc2sccc2c1 (stereo not shown) [Compound 135, 4-[[1-(Benzo[b]thiophene-5-carbonyl)-2-methyl-azetidine-2-carbonyl]-(4-chloro-benzyl)-amino]-butyric acid] |
| 101 to 500 nM | CC1(C(=O)N(CCCC(=O)O)Cc2ccc(Cl)cc2)CCN1C(=O)Cc1cccc2sccc12 (stereo not shown) [Compound 136, 4-[[1-(2-Benzo[b]thiophen-4-yl-acetyl)-2-methylazetidine-2-carbonyl]-(4-chloro-benzyl)-amino]-butyric acid] |
| > 1000 nM | CC1(C(=O)N(CCCC(=O)N2CCOCC2)Cc2ccc(Cl)cc2)CCN1C(=O)c1ccc2sccc2c1 (stereo not shown) [Compound 138, 1-(benzo[b]thiophene-5-carbonyl)-N-(4-chlorobenzyl)-2-methyl-N-(4-morpholino-4-oxobutyl)azetidine-2-carboxamide] |
| > 1000 nM | CC1(C(=O)N(CCCC(=O)N2CCOCC2)Cc2ccc(Cl)cc2)CCN1C(=O)c1csc2ccccc12 (stereo not shown) [Compound 139, 1-(benzo[b]thiophene-3-carbonyl)-N-(4-chlorobenzyl)-2-methyl-N-(4-morpholino-4-oxobutyl)azetidine-2-carboxamide] |
| > 1000 nM | CC1(C(=O)N(CCCC(=O)N2CCOCC2)Cc2ccc(Cl)cc2)CCN1C(=O)Cc1coc2ccccc12 (stereo not shown) [Compound 140, 1-(2-Benzofuran-3-yl-acetyl)-2-methyl-azetidine-2-carboxylic acid (4-chloro-benzyl)-(4-morpholin-4-yl-4-oxo-butyl)-amide] |
| > 1000 nM | CCOC(=O)CCCN(Cc1ccc(C(F)(F)F)cc1)C(=O)C1(C)CCN1C(=O)c1csc2ccccc12 (stereo not shown) [Compound 141, ethyl 4-(1-(benzo[b]thiophene-3-carbonyl)-2-methyl-N-(4-(trifluoromethyl)benzyl)azetidine-2-carboxamido)butanoate] |
| > 1000 nM | CCOC(=O)CCCN(Cc1ccc(C(F)(F)F)cc1)C(=O)C1(C)CCN1C(=O)Cc1csc2ccccc12 (stereo not shown) [Compound 142, 4-[[1-(2-Benzo[b]thiophen-3-yl-acetyl)-2-methyl-azetidine-2-carbonyl]-(4-trifluoromethyl-benzyl)-amino]-butyric acid ethyl ester] |
| > 1000 nM | CCOC(=O)CCCN(Cc1cccc(Cl)c1)C(=O)C1(C)CCN1C(=O)c1csc2ccccc12 (stereo not shown) [Compound 143, ethyl 4-(1-(benzo[b]thiophene-3-carbonyl)-N-(3-chlorobenzyl)-2-methylazetidine-2-carboxamido)butanoate] |
| 101 to 500 nM | CC1(C(=O)N(CCCC(=O)O)Cc2ccc(C(F)(F)F)cc2)CCN1C(=O)c1csc2ccccc12 (stereo not shown) [Compound 145, 4-[[1-(Benzo[b]thiophene-3-carbonyl)-2-methyl-azetidine-2-carbonyl]-(4-trifluoromethyl-benzyl)-amino]-butyric acid] |
| 501 to 1000 nM | CCOC(=O)CCCN(Cc1cccc(Cl)c1)C(=O)C1(C)CCN1C(=O)Cc1csc2ccccc12 (stereo not shown) [Compound 147, 4-[[1-(2-Benzo[b]thiophen-3-yl-acetyl)-2-methyl-azetidine-2-carbonyl]-(3-chloro-benzyl)-amino]-butyric acid ethyl ester] |
| 501 to 1000 nM | CC1(C(=O)N(CCCC(=O)O)Cc2cccc(Cl)c2)CCN1C(=O)Cc1csc2ccccc12 (stereo not shown) [Compound 148, 4-[[1-(2-Benzo[b]thiophen-3-yl-acetyl)-2-methyl-azetidine-2-carbonyl]-(3-chloro-benzyl)-amino]-butyric acid] |
| > 1000 nM | Cc1cc(C)cc(CC(=O)N2CCC2(C)C(=O)N(CCCN2CCCC2=O)Cc2ccc(Cl)cc2)c1 (stereo not shown) [Compound 149, 1-[2-(3,5-Dimethyl-phenyl)-acetyl]-2-methyl-azetidine-2-carboxylic acid (4-chloro-benzyl)-[3-(2-oxo-pyrrolidin-1-yl)-propyl]-amide] |
| 101 to 500 nM | COC(=O)CCN(Cc1ccc(Cl)cc1)C(=O)C1(C)CCN1C(=O)Cc1coc2ccccc12 (stereo not shown) [Compound 150, 3-[[1-(2-Benzofuran-3-yl-acetyl)-2-methyl-azetidine-2-carbonyl]-(4-chloro-benzyl)-amino]-propionic acid methyl ester] |
